Data on 72 compounds can be found in US11767316B2, “Non-fused thiophene derivatives and their uses” (ENYO PHARMA, priority 2018, dated 2023).

One assay relates to H1N1 (influenza A/New Caledonia/20/99). Briefly: Antiviral effect on A549 cells infected with H1N1 (MUNANA neuraminidase readout). The settings on record: H1N1 A/New Caledonia/20/99 at MOI 0.1, 48 h post-infection, MUNANA fluorescence, read-out: IC50. The assay is classed as cell-based. The method, then:
The antiviral effect of the compounds of the invention have been tested on A549 cell lines infected with H1N1 (influenza A/New Caledonia/20/99).
Human A549 cells (80,000 cells/well in a 96 well plate) were treated with a range of concentration of test compounds and immediately infected by H1N1 A/New Caledonia/20/99 virus (clinical isolate) at MOI of 0.1 in DMEM/1% Penicillin/streptomycin supplemented with 0.25 μg/ml TPCK trypsin (Sigma) and incubated at 37° C. in 5% CO2. 48 h post-infection, supernatants (25 μl) were collected and transferred into a 96-well black flat-bottom plate, mixed with 25 μl PBS with Ca++/Mg++(Thermo Fisher) and 50 μl of 2′-(4-Methylumbelliferyl)-α-D-N-acetylneuraminic acid sodium salt hydrate stock-solution (20 μM, MUNANA, Sigma). Plates were incubated 1 h at 37° C. and reaction is stopped by adding 100 μl of Stop Solution (glycine 0.1 M pH10.7/25% ethanol). The amount of fluorescent product released by MUNANA hydrolysis (4-MU) was measured in a Tecan spectrophotometer with excitation and emission wavelengths of 365 and 450 nm respectively.
Turning to `O=C(Nc1scc(C2CCc3ccccc3C2)c1C(=O)O)c1ccccc1` (stereo not drawn) [#156], the IC50 (in general, the concentration that gives 50% inhibition) was 185 nM.
The same measure, in the same setting: to `O=C(Nc1scc(C2CCc3ccccc3C2)c1C(=O)O)c1ccccc1` (stereo not drawn) [#157] belongs 7 nM.
Same read-out and setting: as for `O=C(Nc1scc(C2CCc3ccccc3C2)c1C(=O)O)c1ccc(F)cc1` (stereo not drawn) [#171], the figure is 6 nM; as for `O=C(Nc1scc(C2CCc3ccccc3C2)c1C(=O)O)c1ccc(F)cc1` (stereo not drawn) [#172], 617 nM; as for `O=C(Nc1scc(C2CCc3ccccc3C2)c1C(=O)O)c1ccc(OC(F)F)cc1` (stereo not drawn) [#174], 0.3 nM.
Turning to `O=C(Nc1scc(C2CCc3ccccc3C2)c1C(=O)O)c1ccc(OC(F)F)cc1` (stereo not drawn) [#175], the IC50 worked out at 14 nM.

Still in this assay, the particulars now being: Influenza A virus, H1N1, A549, 48 h, H1N1 A/New Caledonia/20/99 at MOI 0.1, 48 h post-infection, MUNANA fluorescence, read-out: IC50.
For `O=C(Nc1scc(-c2ccc3c(c2)CCC3)c1C(=O)O)c1ccccc1` [#3], the IC50 worked out at 280 nM.
Same read-out and setting: as for `O=C(Nc1scc(C2Cc3ccccc3C2)c1C(=O)O)c1ccccc1` [#7], the figure is 144 nM; as for `O=C(Nc1sc(Cl)c(C2Cc3ccccc3C2)c1C(=O)O)c1ccccc1` [#8], 187 nM; as for `O=C(Nc1sc(Cl)c(C2CCc3ccccc32)c1C(=O)O)c1ccccc1` (stereo not drawn) [#49], 130 nM.
Turning to `O=C(Nc1sc(C2CC2)c(C2Cc3ccccc3C2)c1C(=O)O)c1ccccc1` [#51], the IC50 came out at 52 nM.
For `O=C(Nc1scc(C2CCc3ccccc3C2)c1C(=O)O)c1ccc(NC2CCOCC2)cc1` (stereo not drawn) [#52], the IC50 worked out at 0.4 nM.
As for `COC1CN(c2ccc(C(=O)Nc3scc(C4CCc5ccccc5C4)c3C(=O)O)cc2)C1` (stereo not drawn) [#53], the IC50 stood at 4 nM.
The same measure, in the same setting: to `O=C(Nc1scc(C2CCc3ccccc32)c1C(=O)O)c1ccc(NC2CCOCC2)cc1` (stereo not drawn) [#55] belongs 33.8 nM.
On the same count and under the same terms, to `O=C(Nc1scc(C2CCc3ccccc32)c1C(=O)O)c1ccc(N2CCOCC2)cc1` (stereo not drawn) [#56] belongs 110 nM.
`COC1CN(c2ccc(C(=O)Nc3scc(C4CCc5ccccc54)c3C(=O)O)cc2)C1` (stereo not drawn) [#58]: the IC50 came out at 100 nM.
On the same count and under the same terms, as for `COCCCNc1ccc(C(=O)Nc2scc(C3CCc4ccccc4C3)c2C(=O)O)cc1` (stereo not drawn) [#64], the figure is 3.3 nM.
Still for that read-out and setting: as for `COCCNc1ccc(C(=O)Nc2scc(C3CCc4ccccc4C3)c2C(=O)O)cc1` (stereo not drawn) [#65], the figure is 4 nM; as for `O=C(Nc1scc(C2CCc3ccccc3C2)c1C(=O)O)c1ccc(NC2CCCOC2)cc1` (stereo not drawn) [#67], 2 nM.
The same measure, in the same setting: as for `O=C(Nc1scc(C2CCc3ccccc3C2)c1C(=O)O)c1ccc(N2CCOCC2)cc1` (stereo not drawn) [#68], the figure is 52 nM; as for `O=C(Nc1scc(C2CCc3ccccc3C2)c1C(=O)O)c1ccc(NCC2CCOCC2)cc1` (stereo not drawn) [#69], 3 nM.
For the compound `O=C(Nc1scc(C2CCc3ccccc3C2)c1C(=O)O)c1cccc(N2CCOCC2)c1` (stereo not drawn) [#70], the IC50 was 7.5 nM.
Regarding `O=C(Nc1scc(C2CCc3ccccc3C2)c1C(=O)O)c1cnc(N2CCOCC2)nc1` (stereo not drawn) [#89], the IC50 worked out at 240 nM.
Turning to `COC1CN(c2cccc(C(=O)Nc3scc(C4CCc5ccccc5C4)c3C(=O)O)c2)C1` (stereo not drawn) [#93], the IC50 is 8 nM.
Still for that read-out and setting: as for `COCCOc1ccc(C(=O)Nc2scc(C3CCc4ccccc4C3)c2C(=O)O)cc1` (stereo not drawn) [#101], the figure is 44.6 nM; as for `O=C(Nc1scc(C2CCc3ccccc3CC2)c1C(=O)O)c1ccccc1` [#122], 744 nM.
On to `O=C(Nc1scc(-c2ccc3c(c2)CCCC3)c1C(=O)O)c1ccccc1` [#123], for which the IC50 is 133 nM.
Consider `O=C(Nc1scc(-c2ccc3c(c2)CCCC3)c1C(=O)O)c1ccc(F)cc1` [#125], for which the IC50 came out at 237 nM.
As to `O=C(Nc1scc(C2CCCc3ccccc32)c1C(=O)O)c1ccc(F)cc1` (stereo not drawn) [#126], the IC50 was 237 nM.
On to `COc1cc(C(=O)Nc2scc(C3CCc4ccccc4C3)c2C(=O)O)ccc1NCC1CCOCC1` (stereo not drawn) [#127], for which the IC50 was found to be 1.8 nM.
In the case of `O=C(Nc1scc(C2CCc3ccccc3C2)c1C(=O)O)c1ccc(NCC2CCCCC2)cc1` (stereo not drawn) [#128], the concentration for half-maximal inhibition (IC50) came to 0.8 nM.
As for `O=C(Nc1scc(C2CCc3ccccc3C2)c1C(=O)O)c1ccccc1N1CCOCC1` (stereo not drawn) [#129], the IC50 is 460 nM.
Take `O=C(Nc1scc(C2CCc3ccccc3C2)c1C(=O)O)c1ccccc1CN1CCOCC1` (stereo not drawn) [#130]: the IC50 came to 560 nM.
For the compound `O=C(Nc1scc(C2CCc3ccccc3C2)c1C(=O)O)c1ccc(NC(CO)C2CCOCC2)cc1` (stereo not drawn) [#131], the IC50 was determined as 110 nM.
Still for that read-out and setting: to `CN(CC1CCOCC1)c1ccc(C(=O)Nc2scc(C3CCc4ccccc4C3)c2C(=O)O)cc1` (stereo not drawn) [#132] belongs 2 nM; to `O=C(Nc1scc(C2CCc3ccccc3C2)c1C(=O)O)c1ccc(NCCCCO)cc1` (stereo not drawn) [#133], 50 nM; to `O=C(Nc1scc(C2CCc3ccccc3C2)c1C(=O)O)c1ccc(NCC2CCOCC2)c(O)c1` (stereo not drawn) [#134], 24 nM.
Still for that read-out and setting: to `COCCCCNc1ccc(C(=O)Nc2scc(C3CCc4ccccc4C3)c2C(=O)O)cc1` (stereo not drawn) [#135] belongs 3 nM; to `O=C(Nc1scc(C2CCc3ccccc3C2)c1C(=O)O)c1ccc(NCC2(O)CCOCC2)cc1` (stereo not drawn) [#136], 30 nM; to `COc1cc(C(=O)Nc2scc(C3CCc4ccccc4C3)c2C(=O)O)cc(OC)c1NCC1CCOCC1` (stereo not drawn) [#137], 4.2 nM.
For the compound `O=C(Nc1scc(C2CCc3ccccc3C2)c1C(=O)O)c1ccc(NCC2CCS(=O)(=O)CC2)cc1` (stereo not drawn) [#138], the IC50 came to 22 nM.
`O=C(Nc1scc(C2CCc3ccccc3C2)c1C(=O)O)c1ccc(N2CC3CC(C2)O3)cc1` (stereo not drawn) [#139]: the 50% inhibitory concentration (IC50) is 15 nM.
On the same count and under the same terms, to `O=C(Nc1scc(C2CCc3ccccc3C2)c1C(=O)O)c1ccc(N2C[C@H]3C[C@@H]2CO3)cc1` (stereo partly drawn) [#141] belongs 2.7 nM; to `O=C(Nc1scc(C2CCc3ccccc3C2)c1C(=O)O)c1ccc(N2CC3CCC(C2)O3)cc1` (stereo not drawn) [#142], 0.3 nM; to `C[C@H]1CN(c2ccc(C(=O)Nc3scc(C4CCc5ccccc5C4)c3C(=O)O)cc2)CCO1` (stereo partly drawn) [#143], 4 nM.
As to `O=C(Nc1scc(C2CCc3ccccc3C2)c1C(=O)O)c1ccc(N2C3CCC2COC3)cc1` (stereo not drawn) [#144], the IC50 turned out to be 4 nM.
The same measure, in the same setting: as for `C[C@@H]1COCCN1c1ccc(C(=O)Nc2scc(C3CCc4ccccc4C3)c2C(=O)O)cc1` (stereo partly drawn) [#145], the figure is 32 nM; as for `C[C@H]1COCCN1c1ccc(C(=O)Nc2scc(C3CCc4ccccc4C3)c2C(=O)O)cc1` (stereo partly drawn) [#146], 0.5 nM.
Still for that read-out and setting: to `C[C@@H]1CN(c2ccc(C(=O)Nc3scc(C4CCc5ccccc5C4)c3C(=O)O)cc2)CCO1` (stereo partly drawn) [#147] belongs 8 nM; to `C[C@@H]1CN(c2ccc(C(=O)Nc3scc(C4CCc5ccccc5C4)c3C(=O)O)cc2)C[C@H](C)O1` (stereo partly drawn) [#148], 24 nM.
As for `C[C@@H]1COC[C@H](C)N1c1ccc(C(=O)Nc2scc(C3CCc4ccccc4C3)c2C(=O)O)cc1` (stereo partly drawn) [#149], the IC50 was determined as 29 nM.
The same measure, in the same setting: as for `O=C(Nc1scc(C2CCc3ccccc3C2)c1C(=O)O)c1ccc(N2C3COCC2C3)cc1` (stereo not drawn) [#150], the figure is 1 nM; as for `O=C(Nc1scc(C2CCc3ccccc3C2)c1C(=O)O)c1ccc(OC(F)(F)F)cc1` (stereo not drawn) [#153], 0.4 nM; as for `COc1ccc(C(=O)Nc2scc(C3CCc4ccccc4C3)c2C(=O)O)cc1` (stereo not drawn) [#154], 2.7 nM.
For `COc1ccc(C(=O)Nc2scc(C3CCc4ccccc4C3)c2C(=O)O)cc1OC` (stereo not drawn) [#155], the IC50 amounted to 3 nM.
Same read-out and setting: as for `O=C(Nc1scc(C2CCc3ccccc3C2)c1C(=O)O)c1ccc(C(F)(F)F)cc1` (stereo not drawn) [#158], the figure is 7 nM; as for `COc1ccccc1C(=O)Nc1scc(C2CCc3ccccc3C2)c1C(=O)O` (stereo not drawn) [#159], 100 nM.
For the compound `O=C(Nc1scc(C2CCc3ccccc3C2)c1C(=O)O)c1ccccc1O` (stereo not drawn) [#160], the IC50 was 147 nM.
Still for that read-out and setting: as for `O=C(Nc1scc(C2CCc3ccccc3C2)c1C(=O)O)c1ccc(Cl)cc1` (stereo not drawn) [#161], the figure is 16 nM.
Same read-out and setting: to `O=C(Nc1scc(C2CCc3ccccc3C2)c1C(=O)O)c1ccccc1F` (stereo not drawn) [#163] belongs 43 nM; to `COc1cc(C(=O)Nc2scc(C3CCc4ccccc4C3)c2C(=O)O)ccc1F` (stereo not drawn) [#164], 8 nM; to `CS(=O)(=O)c1ccc(C(=O)Nc2scc(C3CCc4ccccc4C3)c2C(=O)O)cc1` (stereo not drawn) [#165], 900 nM.
For `Cc1ccc(C(=O)Nc2scc(C3CCc4ccccc4C3)c2C(=O)O)cc1` (stereo not drawn) [#166], the IC50 worked out at 39 nM.
Still for that read-out and setting: as for `O=C(Nc1scc(C2CCc3ccccc3C2)c1C(=O)O)c1cccc(Cl)c1` (stereo not drawn) [#167], the figure is 75 nM; as for `O=C(Nc1scc(C2CCc3ccccc3C2)c1C(=O)O)c1ccc(N2CCCC2=O)cc1` (stereo not drawn) [#168], 11 nM.
Same read-out and setting: to `O=C(Nc1scc(C2CCc3ccccc3C2)c1C(=O)O)c1cccc(F)c1` (stereo not drawn) [#169] belongs 162 nM.
Same read-out and setting: to `O=C(Nc1scc(C2CCc3ccccc3C2)c1C(=O)O)c1cccc(OC(F)F)c1` (stereo not drawn) [#170] belongs 18 nM; to `O=C(Nc1scc(C2CCc3ccccc3C2)c1C(=O)O)c1ccc2c(c1)OCCO2` (stereo not drawn) [#176], 76 nM.
With `O=C(Nc1scc(C2CCc3ccccc3C2)c1C(=O)O)c1ccc2c(c1)CCO2` (stereo not drawn) [#177], the IC50 was found to be 35 nM.
As for `O=C(Nc1scc(C2CCc3ccccc3C2)c1C(=O)O)c1ccc(OC2CCC2)cc1` (stereo not drawn) [#178], the IC50 was determined as 122 nM.
On the same count and under the same terms, as for `CC1(C)Cc2cc(C(=O)Nc3scc(C4CCc5ccccc5C4)c3C(=O)O)ccc2O1` (stereo not drawn) [#179], the figure is 29 nM; as for `O=C(Nc1scc(C2CCc3ccccc3C2)c1C(=O)O)c1ccc2c(c1)CCCO2` (stereo not drawn) [#181], 2 nM.
